In US9433622B2, “Pyrimidine compounds useful in the treatment of diseases mediated by IKKE and/or TBK1 mechanisms” (DOMAINEX LIMITED, priority 2013, dated 2016):

Experiments:
[1] = mice models of obesity; cited from earlier work
TBK1 = TBK1 (Homo sapiens (Human), UniProt Q9UHD2); assay: Lanthascreen TR-FRET kinase inhibition assay, TBK1; assay type: biochemical; details: 20 μM ATP (apparent Km), 8 nM kinase, 2.5 h
Summary of the method: (§1)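 TR-FRET: terbium phosphospecific antibody detects phosphorylation of 400 nM fluorescein-IkBα peptide, 20 μM ATP, 20 °C, HEPES pH 7.5 with 3% DMSO. IKKε at 2 nM, 1 h reaction; TBK1 at 8 nM, 2.5 h reaction; started by kinase addition.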

IKKε = IKKε (Homo sapiens (Human), UniProt Q14164); assay: Lanthascreen TR-FRET kinase inhibition assay, IKKε; assay type: biochemical; details: 20 μM ATP (apparent Km), 2 nM kinase, 1 h
Summary of the method: as §1

TBK1, sequence (Q9UHD2 whole entry): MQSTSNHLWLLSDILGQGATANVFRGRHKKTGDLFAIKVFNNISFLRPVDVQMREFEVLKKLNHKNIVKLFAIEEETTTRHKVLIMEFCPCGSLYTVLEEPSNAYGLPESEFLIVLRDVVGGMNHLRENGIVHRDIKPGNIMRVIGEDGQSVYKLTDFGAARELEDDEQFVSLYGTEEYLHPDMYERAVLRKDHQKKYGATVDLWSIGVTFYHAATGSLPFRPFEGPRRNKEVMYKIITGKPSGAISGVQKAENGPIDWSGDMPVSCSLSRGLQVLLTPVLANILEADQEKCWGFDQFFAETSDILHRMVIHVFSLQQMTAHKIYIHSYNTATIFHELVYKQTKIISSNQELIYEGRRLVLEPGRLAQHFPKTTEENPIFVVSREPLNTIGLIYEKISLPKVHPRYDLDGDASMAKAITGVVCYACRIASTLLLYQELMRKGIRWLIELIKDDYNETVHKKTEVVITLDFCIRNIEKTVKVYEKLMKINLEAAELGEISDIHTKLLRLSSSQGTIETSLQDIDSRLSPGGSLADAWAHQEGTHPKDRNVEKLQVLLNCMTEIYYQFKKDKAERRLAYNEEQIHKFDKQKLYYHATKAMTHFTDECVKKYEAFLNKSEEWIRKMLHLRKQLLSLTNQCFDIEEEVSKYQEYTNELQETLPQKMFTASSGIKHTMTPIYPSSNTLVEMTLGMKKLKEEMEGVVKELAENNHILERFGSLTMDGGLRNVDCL
IKKε, sequence (Q14164 whole entry): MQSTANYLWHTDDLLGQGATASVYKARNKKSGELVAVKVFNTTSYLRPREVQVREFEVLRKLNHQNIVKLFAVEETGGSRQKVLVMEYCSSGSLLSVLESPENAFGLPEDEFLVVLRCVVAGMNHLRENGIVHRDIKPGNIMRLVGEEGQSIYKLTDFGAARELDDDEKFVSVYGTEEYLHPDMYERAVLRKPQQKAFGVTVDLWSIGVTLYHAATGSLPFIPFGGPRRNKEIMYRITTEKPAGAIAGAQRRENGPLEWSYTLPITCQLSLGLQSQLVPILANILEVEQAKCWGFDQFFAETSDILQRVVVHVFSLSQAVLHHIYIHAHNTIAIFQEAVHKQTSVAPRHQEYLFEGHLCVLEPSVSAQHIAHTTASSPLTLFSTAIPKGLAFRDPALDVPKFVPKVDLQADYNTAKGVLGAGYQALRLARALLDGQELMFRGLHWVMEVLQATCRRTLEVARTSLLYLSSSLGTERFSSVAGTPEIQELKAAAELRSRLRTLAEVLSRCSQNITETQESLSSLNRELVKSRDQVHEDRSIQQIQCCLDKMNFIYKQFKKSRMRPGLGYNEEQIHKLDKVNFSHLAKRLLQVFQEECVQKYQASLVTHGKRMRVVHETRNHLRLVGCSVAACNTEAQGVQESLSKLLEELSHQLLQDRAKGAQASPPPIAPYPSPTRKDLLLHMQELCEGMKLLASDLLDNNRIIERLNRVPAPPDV

Row | IC50 (TBK1) [nM] | IC50 (IKKε) [nM] | Structure (SMILES) | blood glucose levels [1] | weight gain [1]
1 |  |  | CC(C)c1ccc2oc3nc(N)c(C(=O)O)cc3c(=O)c2c1 [Amlexanox] | lower blood glucose levels | reduce weight gain
2 | < 30 | < 30 | COCCN(C)Cc1ccc(Nc2nccc(-c3ccc(N4CC[C@H](F)C4)c(C#N)n3)n2)cn1 [DMX-152, 3-((S)-3-Fluoro-pyrrolidin-1-yl)-6-[2-(6-{[(2-methoxy-ethyl)-methyl-amino]-methyl}-pyridin-3-ylamino)-pyrimidin-4-yl]-pyridine-2-carbonitrile] |  | 
3 | < 15 | < 15 | N#Cc1nc(-c2nc(Nc3ccc(N4CCOCC4)cc3)ncc2F)ccc1N1CC[C@H](F)C1 [DMX-153, 6-[5-Fluoro-2-(4-morpholin-4-yl-phenylamino)-pyrimidin-4-yl]-3-((S)-3-fluoro-pyrrolidin-1-yl)-pyridine-2-carbonitrile] |  | 
4 | < 1000 | < 1000 | COCCN(C)c1ccc(-c2ccnc(Nc3cnn(C)c3)n2)nc1C#N [DMX-155] |  | 
5 | < 15 | < 15 | N#Cc1nc(-c2ccnc(Nc3ccc(CN4CCNC(=O)C4)nc3)n2)ccc1N1CC[C@H](F)C1 [DMX-156, 3-((S)-3-Fluoro-pyrrolidin-1-yl)-6-{2-[6-(3-oxo-piperazin-1-ylmethyl)-pyridin-3-ylamino]-pyrimidin-4-yl}-pyridine-2-carbonitrile] |  | 
6 | < 30 | < 100 | COCCNCc1ccc(Nc2nccc(-c3ccc(N4CC[C@H](F)C4)c(C#N)n3)n2)cn1 [DMX-157, 3-((S)-3-Fluoro-pyrrolidin-1-yl)-6-(2-{6-[(2-methoxy-ethylamino)-methyl]-pyridin-3-ylamino}-pyrimidin-4-yl)-pyridine-2-carbonitrile] |  | 
7 | < 100 | < 100 | N#Cc1cc(-c2ccnc(Nc3ccc(CN4CCOCC4)nc3)n2)cnc1N1CCC(CC(N)=O)C1 (centres unmarked) [DMX-158, 2-(1-{3-Cyano-5-[2-(6-morpholin-4-ylmethyl-pyridin-3-ylamino)-pyrimidin-4-yl]-pyridin-2-yl}-pyrrolidin-3-yl)-acetamide] |  | 
8 | < 1000 | < 1000 | CC1CN(c2ncc(-c3ccnc(Nc4ccc(CN5CCOCC5)nc4)n3)cc2C#N)CCO1 (centres unmarked) [DMX-159, 2-(2-Methyl-morpholin-4-yl)-5-[2-(6-morpholin-4-ylmethyl-pyridin-3-ylamino)-pyrimidin-4-yl]-nicotinonitrile] |  | 
9 | < 1000 | < 100 | COCC1CCN(c2ncc(-c3ccnc(Nc4ccc(CN5CCOCC5)nc4)n3)cc2C#N)C1 (centres unmarked) [DMX-160, 2-(3-Methoxymethyl-pyrrolidin-1-yl)-5-[2-(6-morpholin-4-ylmethyl-pyridin-3-ylamino)-pyrimidin-4-yl]-nicotinonitrile] |  | 
10 | < 100 | < 30 | N#Cc1cc(-c2ccnc(Nc3ccc(CN4CCOCC4)nc3)n2)cnc1N1CCC(OC(F)F)C1 (centres unmarked) [DMX-161, 2-(3-Difluoromethoxy-pyrrolidin-1-yl)-5-[2-(6-morpholin-4-ylmethyl-pyridin-3-ylamino)-pyrimidin-4-yl]-nicotinonitrile] |  | 
11 | < 100 | < 30 | N#Cc1cc(-c2ccnc(Nc3ccc(CN4CCOCC4)nc3)n2)cnc1N1CCC(CCC(N)=O)C1 (centres unmarked) [DMX-162, 3-(1-{3-Cyano-5-[2-(6-morpholin-4-ylmethyl-pyridin-3-ylamino)-pyrimidin-4-yl]-pyridin-2-yl}-pyrrolidin-3-yl)-propionamide] |  | 
12 | < 100 | < 100 | CN(c1ncc(-c2ccnc(Nc3ccc(CN4CCOCC4)nc3)n2)cc1C#N)C1CCOC1 (centres unmarked) [DMX-163, 2-[Methyl-(tetrahydro-furan-3-yl)-amino]-5-[2-(6-morpholin-4-ylmethyl-pyridin-3-ylamino)-pyrimidin-4-yl]-nicotinonitrile] |  | 
13 | < 100 | < 30 | N#Cc1nc(-c2ccnc(Nc3ccc(CN4CCOCC4)nc3)n2)ccc1N1CCCOCC1 [DMX-164, 6-[2-(6-Morpholin-4-ylmethyl-pyridin-3-ylamino)-pyrimidin-4-yl]-3-[1,4]oxazepan-4-yl-pyridine-2-carbonitrile] |  | 
14 | < 30 | < 15 | N#Cc1nc(-c2ccnc(Nc3ccc(CN4CCOCC4)nc3)n2)ccc1N1CCC2(COC2)C1 [DMX-165, 6-[2-(6-Morpholin-4-ylmethyl-pyridin-3-ylamino)-pyrimidin-4-yl]-3-(2-oxa-6-aza-spiro[3.4]oct-6-yl)-pyridine-2-carbonitrile] |  | 
15 | < 100 | < 100 | N#Cc1nc(-c2ccnc(Nc3ccc(NC(=O)CN4CCOCC4)nc3)n2)ccc1N1CCCOCC1 [DMX-166, N-{5-[4-(6-Cyano-5-[1,4]oxazepan-4-yl-pyridin-2-yl)-pyrimidin-2-ylamino]-pyridin-2-yl)-2-morpholin-4-yl-acetamide] |  | 
16 | < 100 | < 30 | N#Cc1nc(-c2ccnc(Nc3ccc(NC(=O)CN4CCOCC4)nc3)n2)ccc1N1CCC2(COC2)C1 [DMX-167, N-(5-{4-[6-Cyano-5-(2-oxa-6-aza-spiro[3.4]oct-6-yl)-pyridin-2-yl]-pyrimidin-2-ylamino}-pyridin-2-yl)-2-morpholin-4-yl-acetamide] |  | 
